Molecular target: T1, DCAF1 WD40 domain (residues 1077-1390) (Homo sapiens, UniProt Q9Y4B6)
T1 construct: DCAF1 WD40 domain (residues 1077-1390)
Test: DCAF1 binding assay by SPR (Biacore 8K+), DCAF1-3 KD
Conditions: 25 °C, read-out: DCAF1-3 SPR (KD)

T1 sequence (Q9Y4B6 1077-1390): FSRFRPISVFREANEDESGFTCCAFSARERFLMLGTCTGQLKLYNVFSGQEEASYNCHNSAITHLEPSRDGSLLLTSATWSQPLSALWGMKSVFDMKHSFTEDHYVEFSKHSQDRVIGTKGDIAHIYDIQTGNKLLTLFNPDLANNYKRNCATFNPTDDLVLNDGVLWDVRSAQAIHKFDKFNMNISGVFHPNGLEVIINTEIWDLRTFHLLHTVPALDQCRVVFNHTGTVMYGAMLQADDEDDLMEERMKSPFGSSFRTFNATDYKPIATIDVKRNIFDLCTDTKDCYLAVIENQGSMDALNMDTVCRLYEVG

`Cc1c(F)ccc(F)c1-c1[nH]ncc1C(=O)N[C@@H](c1cccc(Cl)c1)[C@@H]1CCCS1(=O)=O` [I-1002] and `Cc1c(F)ccc(F)c1-c1c(C(=O)N[C@@H](CC(=O)N2CC[C@H](O)C2)c2cccc(Cl)c2)cn(C)c1C#N` [I-1004] cannot be ordered by Kd: < 10 µM for the first, < 10 µM for the second.

`Cc1c(F)ccc(F)c1-c1c(C(=O)N[C@@H](CC(N)=O)c2cccc(Cl)c2)cn(C)c1C(=O)c1ccc(C#CCOC2CCNCC2)cc1` [I-1003] and `Cc1c(F)ccc(F)c1-c1c(C(=O)N[C@@H](CC(N)=O)c2cccc(Cl)c2)cn(C)c1C(=O)c1ccc(O)cc1` [I-1030] cannot be ordered by Kd: < 10 µM for the first, < 10 µM for the second.

`Cc1c(F)ccc(F)c1-c1c(C(=O)N[C@@H](CC(=O)N2CC[C@@H](O)C2)c2cccc(Cl)c2)cn(C)c1C#N` [I-1005] and `Cc1c(F)ccc(F)c1-c1c(C(=O)N[C@@H](CC(N)=O)c2cccc(Cl)c2)cn(C)c1C(=O)c1ccc(OCCOCCOCCN)cc1` [I-1034] cannot be ordered by Kd: < 10 µM for the first, < 10 µM for the second.

First: NC(=O)N1CC2(CCCN(c3cccc(F)c3)C2)Nc2cc(N3CCCCC3)ncc21 (centres unmarked) [I-1006]
Second: NCC(=O)N1CC2(CCCN(c3cccc(F)c3)C2)Nc2cc(N3CCCCC3)ncc21 (centres unmarked) [I-1020]
The Kd of the first is higher: 100 to 200 µM for the first, 10 to 100 µM for the second. The second binds more tightly here.

First: OC[C@@H]1CC[C@H](Nc2cc(N3CCCCC3)ccn2)CN1c1cccc(F)c1 [I-1007]
Second: OC[C@H]1CC[C@@H](Nc2cc(N3CCCCC3)ccn2)CN1c1cccc(F)c1 [I-1008]
The Kd of the first is lower: < 10 µM for the first, 10 to 100 µM for the second.

`NCc1cnc(N2CCCCC2)nc1N[C@@H]1CCCN(c2cccc(F)c2)C1` [I-1010] and `NCCNc1cnc(N2CCCCC2)nc1N[C@@H]1CCCN(c2cccc(F)c2)C1` [I-1014] fall in the same range of Kd: 10 to 100 µM for the first, 10 to 100 µM for the second.

`OC[C@@H]1C[C@H](Nc2cc(N3CCCCC3)ccn2)CN(c2cccc(F)c2)C1` [I-1011] and `OC[C@H]1C[C@H](Nc2cc(N3CCCCC3)ccn2)CN(c2cccc(F)c2)C1` [I-1012] fall in the same range of Kd: 10 to 100 µM for the first, 10 to 100 µM for the second.

`Cc1c(F)ccc(F)c1-c1c(C(=O)N[C@@H](CC(N)=O)c2cccc(Cl)c2)cn(C)c1C(=O)c1ccc(OCCOCCOCCOCCOCCOCCOCCN)cc1` [I-1015] and `Cc1c(F)ccc(F)c1-c1c(C(=O)N[C@@H](CC(N)=O)c2cccc(Cl)c2)cn(C)c1C(=O)c1ccc(OCCOCCOCCOCCOCCOCCN)cc1` [I-1018] cannot be ordered by Kd: < 10 µM for the first, < 10 µM for the second.

`Cc1c(F)ccc(F)c1-c1c(C(=O)N[C@@H](CC(N)=O)c2cccc(Cl)c2)cn(C)c1C(=O)c1ccc(OCCOCCOCCOCCOCCN)cc1` [I-1017] and `Cc1c(F)ccc(F)c1-c1c(C(=O)N[C@@H](CC(N)=O)c2cccc(Cl)c2)cn(C)c1C(=O)c1ccc(OCCOCCOCCOCCN)cc1` [I-1024] cannot be ordered by Kd: < 10 µM for the first, < 10 µM for the second.

`NCC1CC[C@@H](Nc2cc(N3CCCCC3)ccn2)CN1c1cccc(F)c1` (some centres unmarked) [I-1019] and `NC[C@H]1CC[C@H](Nc2cc(N3CCCCC3)ccn2)CN1c1cccc(F)c1` [I-1021] fall in the same range of Kd: 10 to 100 µM for the first, 10 to 100 µM for the second.

`NC[C@@H]1CC[C@H](Nc2cc(N3CCCCC3)ccn2)CN1c1cccc(F)c1` [I-1022] and `NC[C@@H]1CC[C@@H](Nc2cc(N3CCCCC3)ccn2)CN1c1cccc(F)c1` [I-1023] fall in the same range of Kd: 10 to 100 µM for the first, 10 to 100 µM for the second.

`NC(=O)[C@H]1CC[C@@H](Nc2cc(N3CCCCC3)ccn2)CN1c1cccc(F)c1` [I-1025] and `NC(=O)[C@@H]1CC[C@H](Nc2cc(N3CCCCC3)ccn2)CN1c1cccc(F)c1` [I-1027] fall in the same range of Kd: 10 to 100 µM for the first, 10 to 100 µM for the second.

`NC(=O)[C@@H]1C[C@H](Nc2cc(N3CCCCC3)ccn2)CN(c2cccc(F)c2)C1` [I-1031] and `NC(=O)[C@H]1C[C@@H](Nc2cc(N3CCCCC3)ccn2)CN(c2cccc(F)c2)C1` [I-1032] fall in the same range of Kd: 10 to 100 µM for the first, 10 to 100 µM for the second.

First: NC(=O)[C@@H]1C[C@@H](Nc2cc(N3CCCCC3)ccn2)CN(c2cccc(F)c2)C1 [I-1033]
Second: NC(=O)OCc1cc(F)cc(N2CCC[C@@H]3[C@H]2CCN3c2cc(N3CC4CC(C4)C3)ccn2)c1 [I-1036]
The Kd of the first is lower: < 10 µM for the first, 10 to 100 µM for the second.

Same assay, conditions: DCAF1-3 SPR (KD), 25 °C

With `NC(=O)OCc1cc(F)cc(N2CCC[C@H]3[C@@H]2CCN3c2cc(N3CC4CC(C4)C3)ccn2)c1` [I-1035, 3-((3aS,7aS)-1-(4-(3-azabicyclo[3.1.1]heptan-3-yl)pyridin-2-yl)octahydro-4H-pyrrolo[3,2-b]pyridin-4-yl)-5-fluorobenzyl carbamate] the Kd was < 10 µM.

— patent US20260373266A1, “PROTEIN DEGRADERS AND USES THEREOF” (KYMERA THERAPEUTICS, INC., priority 2022, published 2026)
